Assay results as given in patent US5175320A, “Fluorinated bile acid derivatives, processes for the preparation thereof and pharmaceutical compositions containing them” (Giuliani S.p.A., priority 1989, dated 1992).
≈ marks a conversion by molar mass, not a printed value. Entries after “also recorded” stand apart in the source; their conditions may differ.

How the values were obtained:
[1] = lypophilicity by C/18 reverse phase HPLC; format: physicochemical; settings: for rK' C-18: rK' = relative values, C-18 reverse phase HPLC
Description: (§1) 6-FCDCA has been submitted to a series of physico-chemical determinations following a previously described protocol. Particularly, the lypophilicity, detergency, water solubility and pKa were measured.

[2] = detergency, critical micellar concentration; format: physicochemical; settings: for CMC: Table 1
Description: as §1

[3] = water solubility (of the protonated forms); format: physicochemical
Description: as §1, with “measured. | rK' = relative values Water solubility of the protonated forms Data on water solubility are reported on the enclosed table 1.” for “measured.”

pKa = format: physicochemical
Description: 6-FCDCA has been submitted to a series of physico-chemical determinations following a previously described protocol.

human stools = format: in vitro ADME

Row | Structure (SMILES) | rK' C-18 [1] | CMC [2] [mmol/1] | water solubility [3] [µmol] | S (water solubility) ([3]; protonated forms, Table 1) [µM] | pKa (pKa) | lypophilicity compared with natural analogues ([1]; C/18 reverse phase HPLC, result in words) | protection of the 7-hydroxy group from oxidation and 7-dehydroxylation (human stools) | stability to intestinal bacteria compared with CDCA (human stools) | critical micellar concentration [2] [mmol/L] | water solubility compared with CDCA [3] | solubility ([3]; water) [µM]
1 | C[C@H](CCC(=O)O)[C@H]1CC[C@H]2[C@@H]3[C@H](O)C[C@@H]4C[C@H](O)CC[C@]4(C)[C@H]3CC[C@]12C [CDCA, chenodeoxycholic, reference compound] | 0.89 | 9 | 30 | 30 |  |  |  |  |  |  | 
2 | C[C@H](CCC(=O)O)[C@H]1CC[C@H]2[C@@H]3[C@H](O)C(F)[C@H]4C[C@H](O)CC[C@]4(C)[C@H]3CC[C@]12C (stereo partly drawn) [Example 6-FCDCA, 3α,7α-Dihydroxy-6-fluoro-5α-cholan-24-oic acid] | 0.6 | 10 |  |  | 5 | lower when compared with CDCA; also recorded: intermediate between CDCA and UDCA; also recorded: less lypohilic than CDCA | efficaciously protects the hydroxy group in 7-position to oxidation and 7-dehydroxylation | more stable to intestinal bacteria | 10 | slightly higher than that of CDCA | 80 (≈ 32.8 µg/mL)
3 | C[C@H](CCC(=O)O)[C@H]1CC[C@H]2[C@@H]3[C@@H](O)C[C@@H]4C[C@H](O)CC[C@]4(C)[C@H]3CC[C@]12C [UDCA, ursodeoxycholic, reference compound] | 0.4 |  |  |  |  |  |  |  |  |  | 
